From patent US8722903B2, “Indazole derivatives for the treatment of HSP9O-induced diseases” (Merck Patent GmbH, priority 2006, dated 2014)

Target: T1, Recombinant human HSP90α (Homo sapiens, UniProt P07900)
T1 construct: host or cells: E. coli
Experiment: Radioligand filter binding test: competitive inhibition of [3H]17AAG binding to HSP90
Conditions: [3H]17AAG 0.08 μM, HSP90 1.5 μg/assay, 22° C., 30 min
Description: In the specific case, a radioligand filter binding test is used. The radioligand used here is tritium-labelled 17-allylaminogeldanamycin, [3H]17AAG, This filter binding test allows a targeted search for inhibitors which interfere with the ATP binding site.
Recombinant human HSP90α (E. coli expressed, 95% purity);
HEPES filter buffer (50 mM HEPES, pH 7.0, 5 mM MgCl2, BSA 0.01%) Multiscreen FB (1 μm) filter plate (Millipore, MAFBNOB 50).
The 96-well microtitre filter plates are firstly irrigated and coated with 0.1% of polyethylenimine.
The test is carried out under the following conditions:
Reaction temperature 22° C.
Reaction time: 30 min., shaking at 800 rpm
50 mM HEPES HCl, pH 7.0, 5 mM MgCl2, 0.01% (w/v) of BSA
At the end of the reaction, the supernatant in the filter plate is removed by suction with the aid of a vacuum manifold (Multiscreen Separation System, Millipore), and the filter is washed twice.
The filter plates are then measured in a beta counter (Microbeta, Wallac) with scintillator (Microscint 20, Packard).
“% of control” is determined from the “counts per minutes” values, and the IC-50 value of a compound is calculated therefrom.

IC50 [µM]	Compound
0.01 to 1	COc1cc(N(C)C(=O)c2cc3c(Cc4cccc(C)c4)n[nH]c3cc2O)ccc1N1CCN(C)CC1 [Compound A190, 5-{N-[3-Methoxy-4-(4-methylpiperazin-1-yl)phenyl]-N-methylaminocarbonyl}-3-(3-methylbenzyl)-6-hydroxy-1H-indazole]
0.01 to 1	CCCc1n[nH]c2cc(O)c(C(=O)N(C)Cc3ccccc3)cc12 [Compound A178, 5-(N-Benzyl-N-methylaminocarbonyl)-3-propyl-6-hydroxy-1H-indazole]
1 to 10	CCCN(C)C(=O)c1cc2c(Cc3ccccc3)n[nH]c2cc1O [Compound A4, 5-(N-propyl-N-methylaminocarbonyl)-3-benzyl-6-hydroxy-1H-indazole]
0.01 to 1	Cc1ccc(Cc2n[nH]c3cc(O)c(C(=O)N(C)c4ccccc4)cc23)cc1 [Compound A122, 5-(N-Phenyl-N-methylaminocarbonyl)-3-(4-methylbenzyl)-6-hydroxy-1H-indazole]
1 to 10	COCCN(C)C(=O)c1cc2c(Cc3cccc(Cl)c3)n[nH]c2cc1O [Compound A41, 5-[N-(2-Methoxyethyl)-N-methylaminocarbonyl]-3-(3-chlorobenzyl)-6-hydroxy-1H-indazole]
1 to 10	CCCN(C)C(=O)c1cc2c(Cc3ccccc3Cl)n[nH]c2cc1O [Compound A35, 5-(N-Propyl-N-methylaminocarbonyl)-3-(2-chlorobenzyl)-6-hydroxy-1H-indazole]
1 to 10	CCCN(C)C(=O)c1cc2c(Cc3cccc(C)c3)n[nH]c2cc1O [Compound A38, 5-(N-Propyl-N-methylaminocarbonyl)-3-(3-methylbenzyl)-6-hydroxy-1H-indazole]
0.01 to 1	COc1ccc(N(C)C(=O)c2cc3c(Cc4cccc(C)c4)n[nH]c3cc2O)cc1OC [Compound A145, 5-[N-(3,4-Dimethoxyphenyl)-N-methylaminocarbonyl]-3-(3-methylbenzyl)-6-hydroxy-1H-indazole]
0.01 to 1	COc1cccc(N(C)C(=O)c2cc3c(CC4CCCC4)n[nH]c3cc2O)c1 [Compound A257, 5-[N-(3-Methoxyphenyl)-N-methylaminocarbonyl]-3-cyclopentylmethyl-6-hydroxy-1H-indazole]
0.01 to 1	Cc1ccc(N(C)C(=O)c2cc3c(CC4CCCC4)n[nH]c3cc2O)cc1 [Compound A256, 5-[N-(4-Methylphenyl)-N-methylaminocarbonyl]-3-cyclopentylmethyl-6-hydroxy-1H-indazole]
1 to 10	COCCN(C)C(=O)c1cc2c(Cc3cccc(C)c3)n[nH]c2cc1O [Compound A37, 5-[N-(2-Methoxyethyl)-N-methylaminocarbonyl]-3-(3-methylbenzyl)-6-hydroxy-1H-indazole]
0.01 to 1	CC(=O)N1CCc2cc(N(C)C(=O)c3cc4c(Cc5cccc(C)c5)n[nH]c4cc3O)ccc21 [Compound A157, 5-[N-(1-Acetyl-2,3-dihydro-1H-indol-5-yl)-N-methylaminocarbonyl]-3-(3-methylbenzyl)-6-hydroxy-1H-indazole]
0.01 to 1	CCCc1n[nH]c2cc(O)c(C(=O)N(C)c3ccc(CNS(C)(=O)=O)cc3)cc12 [Compound A177, 5-[N-(4-Methylsulfonylaminomethylphenyl)-N-methylaminocarbonyl]-3-propyl-6-hydroxy-1H-indazole]
1 to 10	Cc1cccc(Cc2n[nH]c3cc(O)c(C(=O)N(C)C4CCCCC4)cc23)c1 [Compound A195, 5-(N-Cyclohexyl-N-methylaminocarbonyl)-3-(3-methylbenzyl)-6-hydroxy-1H-indazole]
> 10	COCCN(C)C(=O)c1cc2c(Cc3ccccc3Cl)n[nH]c2cc1O [Compound A34, 5-[N-(2-Methoxyethyl)-N-methylaminocarbonyl]-3-(2-chlorobenzyl)-6-hydroxy-1H-indazole]
0.01 to 1	CCCN(C)C(=O)c1cc2c(Cc3cccc(Cl)c3)n[nH]c2cc1O [Compound A42, 5-(N-Propyl-N-methylaminocarbonyl)-3-(3-chlorobenzyl)-6-hydroxy-1H-indazole]
0.01 to 1	CCCc1n[nH]c2cc(O)c(C(=O)N(C)c3ccc(OC)c(OC)c3)cc12 [Compound A174, 5-[N-(3,4-Dimethoxyphenyl)-N-methylaminocarbonyl]-3-propyl-6-hydroxy-1H-indazole]
0.01 to 1	COc1cccc(Cc2n[nH]c3cc(O)c(C(=O)N(C)c4ccc(CNS(C)(=O)=O)cc4)cc23)c1 [Compound A162, 5-[N-(4-Methylsulfonylaminomethylphenyl)-N-methylaminocarbonyl]-3-(3-methoxybenzyl)-6-hydroxy-1H-indazole]

Further lines, the compound ahead of its results:

Compound	IC50 [µM]
COc1ccc(Cl)cc1CN(C)C(=O)c1cc2c(Cc3ccccc3)n[nH]c2cc1O [Compound A31, 5-[N-(3-Chloro-6-methoxybenzyl)-N-methylaminocarbonyl]-3-benzyl-6-hydroxy-1H-indazole]	1 to 10
CCc1ccc(CN(C)C(=O)c2cc3c(Cc4ccccc4)n[nH]c3cc2O)cc1 [Compound A28, 5-[N-(4-Ethylbenzyl)-N-methylaminocarbonyl]-3-benzyl-6-hydroxy-1H-indazole]	0.01 to 1
5-[N-(3-Methoxybenzyl)-N-methylaminocarbonyl]-3-benzyl-6-hydroxy-1H-indazole [Compound A27]	0.01 to 1
COc1cccc(CN(C)C(=O)c2cc3c(Cc4ccccc4)n[nH]c3cc2O)c1OC [Compound A23, 5-[N-(2,3-Dimethoxybenzyl)-N-methylaminocarbonyl]-3-benzyl-6-hydroxy-1H-indazole]	0.01 to 1
Cc1ccccc1Cc1n[nH]c2cc(O)c(C(=O)N(C)Cc3ccccc3)cc12 [Compound A44, 5-(N-Benzyl-N-methylaminocarbonyl)-3-(2-methylbenzyl)-6-hydroxy-1H-indazole]	1 to 10
CN(Cc1cccc(C(F)(F)F)c1)C(=O)c1cc2c(Cc3ccccc3)n[nH]c2cc1O [Compound A29, 5-[N-(3-Trifluoromethylbenzyl)-N-methylaminocarbonyl]-3-benzyl-6-hydroxy-1H-indazole]	1 to 10
CN(Cc1cccc(Cl)c1)C(=O)c1cc2c(Cc3ccccc3)n[nH]c2cc1O [Compound A10, 5-[N-(3-Chlorobenzyl)-N-methylaminocarbonyl]-3-benzyl-6-hydroxy-1H-indazole]	1 to 10
CCCN(C)C(=O)c1cc2c(CCc3ccccc3)n[nH]c2cc1O [Compound A182, 5-(N-Propyl-N-methylaminocarbonyl)-3-phenethyl-6-hydroxy-1H-indazole]	1 to 10
CCCCN(C)C(=O)c1cc2c(Cc3ccc(C)cc3)n[nH]c2cc1O [Compound A64, 5-(N-Butyl-N-methylaminocarbonyl)-3-(4-methylbenzyl)-6-hydroxy-1H-indazole]	1 to 10
COc1ccc(C)cc1CN(C)C(=O)c1cc2c(Cc3ccccc3)n[nH]c2cc1O [Compound A20, 5-[N-(2-Methoxy-5-methylbenzyl)-N-methylaminocarbonyl]-3-benzyl-6-hydroxy-1H-indazole]	1 to 10
CN(Cc1cccc(Br)c1)C(=O)c1cc2c(Cc3ccccc3)n[nH]c2cc1O [Compound A26, 5-[N-(3-Bromobenzyl)-N-methylaminocarbonyl]-3-benzyl-6-hydroxy-1H-indazole]	1 to 10
CCc1ccc(Cc2n[nH]c3cc(O)c(C(=O)N(C)Cc4ccccc4)cc23)cc1 [Compound A71, 5-(N-Benzyl-N-methylaminocarbonyl)-3-(4-ethylbenzyl)-6-hydroxy-1H-indazole]	1 to 10
CN(Cc1ccccc1)C(=O)c1cc2c(Cc3cccc(Cl)c3)n[nH]c2cc1O [Compound A40, 5-(N-Benzyl-N-methylaminocarbonyl)-3-(3-chlorobenzyl)-6-hydroxy-1H-indazole]	0.01 to 1
CN(Cc1ccccc1)C(=O)c1cc2c(Cc3ccccc3)n[nH]c2cc1O [Compound A6, 5-(N-Benzyl-N-methylaminocarbonyl)-3-benzyl-6-hydroxy-1H-indazole]	0.01 to 1
